Reference: PMC10432605 (Blood Advances, 2023)
Values joined by “and” are separate entries in the source; they are usually repeats but may differ in a detail not shown here. Equal values may be shown once. “Also recorded” adds a separate entry of the source. Read-outs that look alike come from different tables or passages of the source.

How the values were obtained:
[1] = test system: patients; conditions: cited from earlier work; for incidence of diarrhea / incidence of second malignancy: ref 10 (ibrutinib), 14 (acalabrutinib), 15 (zanubrutinib)
[2] = test system: patients with r/r MCL; conditions: cited from earlier work
[3] = test system: patients with r/r MCL; test: phase 1/2 study efficacy; format: in vivo, human
[4] = pharmacokinetics in patients with r/r MCL
[5] = test system: patients with r/r MCL; test: phase 1/2 study safety; format: in vivo, human
[6] = median follow-up of 26.7 months
[7] = 29 patients with best response CR
[8] = IRC-assessed, n=106, follow-up 23.8 mo
[9] = Investigator-assessed, n=106, follow-up 23.8 mo
[10] = PET assessment, median follow-up 18.4 months
[11] = PET assessment, median follow-up 26 months

C=CC(=O)N1CCC[C@@H](n2nc(-c3ccc(Oc4ccccc4)cc3)c3c(N)ncnc32)C1 [ibrutinib]
grade 3 or greater atrial fibrillation and atrial flutter [1]: 4%
grade 3 or higher hypertension events [1]: 8%
median TTR [2]: 1.9 months
ORR in patients with bulky tumors [2, 6]: 67%
ORR in patients with ≥2 prior treatments [2, 6]: 63%
ORR ([2]; pivotal study 1104, r/r MCL, median 15.3-month follow-up, CT-based): 65.8%
median DOR ([2]; pivotal study 1104): 17.5 months
median PFS ([2]; pivotal study 1104): 13.9 months
CR ([2]; pivotal study 1104, median 15.3-month follow-up, CT-based): 17.1%

C=CC(=O)N1CCC(c2ccc(C(N)=O)c(-c3ccc(Oc4ccccc4)cc3)n2)CC1 [orelabrutinib]
DOR rate at 24 months [3, 7]: ~80%
OS at 24 months [3, 7]: ~100%
PFS rate at 24 months [3, 7]: ~80%
median reduction percentage in the SPD of target lesions ([3]; CT/MRI, baseline median SPD 2514.4 mm^2): 87.2%
patients with objective response ([3]; IRC assessment, n=106): 86 patients
median DOR ([3]; IRC-assessed): 22.9 months
CR [3, 8]: 27.4%
DCR [3, 8]: 86.8 (78.8-92.6) %
PD [3, 8]: 8.5%
PR [3, 8]: 53.8%
ORR ([3]; IRC-assessed, n=106, median follow-up 23.8 mo): 81.1 (72.4-88.1) %
CR ([3]; IRC, follow-up 10.5 mo): 25.5%
CR [3, 9]: 34.9%
DCR [3, 9]: 87.7 (79.9-93.3) %
ORR [3, 9]: 82.1 (73.4-88.9) %
PD [3, 9]: 5.7%
PR [3, 9]: 47.2%
median PFS ([3]; full analysis set): 22.0 months and 22 months
patients with objective response ([3]; investigator assessment, n=106): 87 patients
median TTR ([3]; n=106): 1.9 months
ORR (95% CI), IRC ([3]; subgroup Age ≥65): 83.3%
ORR (95% CI), IRC ([3]; subgroup Baseline Splenomegaly Yes): 66.7%
ORR (95% CI), IRC ([3]; subgroup Ki-67 ≥30%): 79.4%
ORR (95% CI), IRC ([3]; subgroup Prior CD20 Antibody Therapy No): 91.7%
ORR (95% CI), IRC ([3]; subgroup Prior lines of therapy ≥2): 75.9%
ORR (95% CI), IRC ([3]; subgroup Tumor Stage III/IV): 80%
ORR (95% CI), IRC ([3]; subgroup longest target lesion ≥10 cm (bulky disease)): 81.8%
Tmax ([4]; human, in vivo, 150 mg, Tmax (median, minimum-maximum), Day 1 single, 150 mg): 2 h
Coefficients of variation of pharmacokinetic parameters ([4]; patients with r/r MCL): < 30%
atrial fibrillation, grade 1 ([5]; cycle 1, deemed unrelated to treatment): 1 episode
AEs leading to discontinuation of treatment ([5]; n=106): 4.7%
Alanine aminotransferase increase (any grade): Incidence ([5]; n=106): 10.4%
Alanine aminotransferase increase (any grade): Number of patients ([5]; n=106): 11
All TEAEs: Incidence ([5]; n=106): 95.3%
All TEAEs: Number of patients ([5]; n=106): 101
All grade ≥3 TEAEs: Incidence ([5]; n=106): 51.9%
All grade ≥3 TEAEs: Number of patients ([5]; n=106): 55
Anemia (any grade): Incidence ([5]; n=106): 19.8%
Anemia (any grade): Number of patients ([5]; n=106): 21
Anemia (grade ≥3): Incidence ([5]; n=106): 7.5%
Anemia (grade ≥3): Number of patients ([5]; n=106): 8
Cough (any grade): Incidence ([5]; n=106): 16.0%
Cough (any grade): Number of patients ([5]; n=106): 17
Diarrhea (any grade): Incidence ([5]; n=106): 11.3%
Diarrhea (any grade): Number of patients ([5]; n=106): 12
Disease progression (grade ≥3 AE): Incidence ([5]; n=106): 4.7%
Disease progression (grade ≥3 AE): Number of patients ([5]; n=106): 5
Grade 3 or higher infection events ([5]; n=106): 14.2%
Hematuria (any grade): Incidence ([5]; n=106): 10.4%
Hematuria (any grade): Number of patients ([5]; n=106): 11
Hyperglycemia (any grade): Incidence ([5]; n=106): 12.3%
Hyperglycemia (any grade): Number of patients ([5]; n=106): 13
Hypertension (any grade): Incidence ([5]; n=106): 17%
Hypertension (any grade): Number of patients ([5]; n=106): 18
Hypertension (grade ≥3): Incidence ([5]; n=106): 5.7%
Hypertension (grade ≥3): Number of patients ([5]; n=106): 6
Hypoalbuminemia (any grade): Incidence ([5]; n=106): 10.4%
Hypoalbuminemia (any grade): Number of patients ([5]; n=106): 11
Hypokalemia (any grade): Incidence ([5]; n=106): 17.0%
Hypokalemia (any grade): Number of patients ([5]; n=106): 18
Hypokalemia (grade ≥3): Incidence ([5]; n=106): 2.8%
Hypokalemia (grade ≥3): Number of patients ([5]; n=106): 3
Leukocytosis (grade ≥3): Incidence ([5]; n=106): 3.8%
Leukocytosis (grade ≥3): Number of patients ([5]; n=106): 4
Leukopenia (any grade): Incidence ([5]; n=106): 19.8%
Leukopenia (any grade): Number of patients ([5]; n=106): 21
Lymphocytosis (grade ≥3): Incidence ([5]; n=106): 3.8%
Lymphocytosis (grade ≥3): Number of patients ([5]; n=106): 4
Neutropenia (any grade): Incidence ([5]; n=106): 24.5%
Neutropenia (any grade): Number of patients ([5]; n=106): 26
Neutropenia (grade ≥3): Incidence ([5]; n=106): 8.5%
Neutropenia (grade ≥3): Number of patients ([5]; n=106): 9
Pneumonia (any grade): Incidence ([5]; n=106): 11.3%
Pneumonia (any grade): Number of patients ([5]; n=106): 12
Pneumonia (grade ≥3): Incidence ([5]; n=106): 5.7%
Pneumonia (grade ≥3): Number of patients ([5]; n=106): 6
Pneumonitis (any grade): Incidence ([5]; n=106): 17.9%
Pneumonitis (any grade): Number of patients ([5]; n=106): 19
Pneumonitis (grade ≥3): Incidence ([5]; n=106): 3.8%
Pneumonitis (grade ≥3): Number of patients ([5]; n=106): 4
Prolonged QT interval (any grade): Incidence ([5]; n=106): 11.3%
Prolonged QT interval (any grade): Number of patients ([5]; n=106): 12
Pyrexia (any grade): Incidence ([5]; n=106): 12.3%
Pyrexia (any grade): Number of patients ([5]; n=106): 13
Rash (any grade): Incidence ([5]; n=106): 17.0%
Rash (any grade): Number of patients ([5]; n=106): 18
SAE Pneumonia: Incidence ([5]; n=106): 5.7%
SAE Pneumonitis: Incidence ([5]; n=106): 4.7%
SAE Progressive disease: Incidence ([5]; n=106): 4.7%
Soft tissue infection (grade ≥3): Incidence ([5]; n=106): 2.8%
Soft tissue infection (grade ≥3): Number of patients ([5]; n=106): 3
Thrombocytopenia (any grade): Incidence ([5]; n=106): 34.0%
Thrombocytopenia (any grade): Number of patients ([5]; n=106): 36
Thrombocytopenia (grade ≥3): Incidence ([5]; n=106): 13.2%
Thrombocytopenia (grade ≥3): Number of patients ([5]; n=106): 14
Upper respiratory tract infection (any grade): Incidence ([5]; n=106): 27.4%
Upper respiratory tract infection (any grade): Number of patients ([5]; n=106): 29
Weight increase (any grade): Incidence ([5]; n=106): 11.3%
Weight increase (any grade): Number of patients ([5]; n=106): 12
bleeding events (any) ([5]; n=106): 34.9%
bleeding events grade 1 ([5]; n=106): 31.1%
bleeding events grade 2 ([5]; n=106): 3.8%
death from infection due to acute myeloid leukemia ([5]; n=106): 1%
death from lung infection due to the common cold ([5]; n=106): 1%
deaths due to drug-related AEs (fatal TRAEs) ([5]; n=106): no fatal TRAEs were reported; also recorded: No deaths due to drug-related AEs were reported
deaths from AEs deemed unrelated to treatment ([5]; n=106): 2%
deaths from disease progression ([5]; n=106): 15%
diarrhea judged as related to treatment ([5]; n=106): 3.8%
discontinued treatment because of drug-related AEs ([5]; n=106): 2.8%
drug-related grade 3 or higher infection events ([5]; n=106): 6.6%
drug-related infection events ([5]; n=106): 34%
drug-related pneumonia ([5]; n=106): 7.5%
drug-related upper respiratory tract infection ([5]; n=106): 13.2%
grade 3 or higher second primary malignancy, atrial fibrillation/flutter, diarrhea, or bleeding events ([5]; n=106): No grade 3 or higher second primary malignancy, atrial fibrillation/flutter, diarrhea, or bleeding events were observed
major hemorrhage (grade 3 or higher, serious, or any grade CNS bleeding) ([5]; n=106): No patient experienced major hemorrhage
microscopic hematuria ([5]; n=106): 6.6%
patients who died during the study ([5]; n=106): 27 patients
patients with treatment-related grade 3 or higher AEs ([5]; n=106): 34.9%
petechiae ([5]; n=106): 4.7%
proportion of AEs that were grade 1 or 2 ([5]; n=106): 89%
purpura ([5]; n=106): 4.7%
rate of second malignancy ([5]; n=106): 2.8%
second primary malignancy ([5]; n=106): 3 patients
treatment-related AEs leading to dose interruption ([5]; n=106): 17%
treatment-related anemia ([5]; n=106): 14.2%
treatment-related decreases in neutrophils ([5]; n=106): 22.6%
treatment-related decreases in platelets ([5]; n=106): 32.1%
treatment-related decreases in white blood cells ([5]; n=106): 18.9%
treatment-related hypertension ([5]; n=106): 15.1%

C=CC(=O)N1CCC([C@@H]2CCNc3c(C(N)=O)c(-c4ccc(Oc5ccccc5)cc4)nn32)CC1 [zanubrutinib]
major hemorrhage [1]: 5.4%
rate of treatment discontinuation [1]: 12.5%
incidence of diarrhea [1]: 23%
incidence of second malignancy [1]: 14%
CR [2, 10]: 68.6%
ORR [2, 10]: 84%
median TTR [2]: 2.8 months
median DOR ([2]; zanubrutinib trial): 19.5 months
median PFS ([2]; zanubrutinib trial): 22.1 months

CC#CC(=O)N1CCC[C@H]1c1nc(-c2ccc(C(=O)Nc3ccccn3)cc2)c2c(N)nccn12 [acalabrutinib]
major hemorrhage [1]: 3.0%
incidence of diarrhea [1]: 31%
incidence of second malignancy [1]: 12%
CR [2, 11]: 43%
ORR [2, 11]: 81%
median DOR ([2]; acalabrutinib trial): 26 months
median PFS ([2]; acalabrutinib trial): 20 months
